From US20260015581A1, “METHODS FOR THE PRODUCTION OF RETINAL CELLS” (MIAMI UNIVERSITY, priority 2018, published 2026)

Tested on: PGP1-derived RPE
Test: Small molecule screen for reprogramming of PGP1-derived RPE to neural retina (induction of fluorescent reporter expression)
Details: for induction of Cerulean expression in PGP1-derived RPE: Selleck Chemicals Epigenetic Compounds Library L1900; for induction of Cerulean expression (blue fluorescent cells) in PGP1-derived RPE: first library of 127 compounds, 5-15 days of treatment, at least 9 different replicates, U0126 39 μM, SC 79 110 μM, KU 0063794 3 μM
Experimental: A second small molecule screen tested 180 compounds at a concentration of 40 μM designed to target epigenetic pathways (from the Selleck Chemicals Epigenetic Compounds Library L1900).

## COc1cc2c(Nc3ccc(NC(=O)c4ccccc4)cc3)ncnc2cc1OCCCN1CCOCC1 [ZM 447439]
40 μM
  induction of Cerulean expression in PGP1-derived RPE: showed evidence of inducing Cerulean expression

## CCOC(=O)C1=C(N)Oc2ccc(Cl)cc2C1C(C#N)C(=O)OCC (stereo not shown) [SC 79]
  induction of Cerulean expression (blue fluorescent cells) in PGP1-derived RPE: produced blue fluorescent cells

## O=C(Nc1ccccc1-c1cn2c(CN3CC[C@@H](O)C3)csc2n1)c1ccc2ccccc2c1 [SSRT2183]
40 μM
  induction of Cerulean expression in PGP1-derived RPE: showed evidence of inducing Cerulean expression

## CN1CCN(c2ccc(-c3cccc(CN4CCOCC4)c3)cc2NC(=O)c2c[nH]c(=O)cc2C(F)(F)F)CC1 [OICR-9429]
40 μM
  induction of Cerulean expression in PGP1-derived RPE: showed evidence of inducing Cerulean expression

## CCn1cc(-c2cccc(C(F)(F)F)c2)c2sc(C(=N)NC3CCS(=O)(=O)CC3)cc2c1=O [I-BRD9]
40 μM
  induction of Cerulean expression in PGP1-derived RPE: showed evidence of inducing Cerulean expression

## O=C(O)c1ccc(O)c2ncccc12 [Carboxy-8-hydroxyquinoline]
40 μM
  induction of Cerulean expression in PGP1-derived RPE: showed evidence of inducing Cerulean expression

## CN(C)CCCNC(=O)c1ccc(-c2cc(O)c3ncccc3c2)cc1 [ML324]
40 μM
  induction of Cerulean expression in PGP1-derived RPE: showed evidence of inducing Cerulean expression

## N#CC(=C(/N)Sc1ccccc1N)/C(C#N)=C(\N)Sc1ccccc1N [U0126]
  induction of Cerulean expression (blue fluorescent cells) in PGP1-derived RPE: produced blue fluorescent cells

## BI 847325
40 μM, D0, D5 and D10 of treatment (FIG. 21)
  subsequent induction of eGFP expression (retinal ganglion cell reporter) in PGP1-derived RPE: subsequently induces the expression of eGFP
40 μM
  induction of Cerulean expression in PGP1-derived RPE: showed evidence of inducing Cerulean expression

## COc1ccc(-c2ccc3c(N4CCOCC4)nc(N4C[C@@H](C)O[C@@H](C)C4)nc3n2)cc1CO [KU 0063794]
  induction of Cerulean expression (blue fluorescent cells) in PGP1-derived RPE: produced blue fluorescent cells

## C1=C/COCc2cc(ccc2OCCN2CCCC2)Nc2nccc(n2)-c2cccc(c2)COC/1 [Pacritinib]
40 μM
  induction of Cerulean expression in PGP1-derived RPE: showed evidence of inducing Cerulean expression

## Cc1c(CN2CCC(Nc3ncnc4sc(CC(F)(F)F)cc34)CC2)ccc2[nH]c(C#N)cc12 [MI 463]
40 μM
  induction of Cerulean expression in PGP1-derived RPE: showed evidence of inducing Cerulean expression
